Measurements published in ChEMBL document CHEMBL4152244, “Discovery of new erbB4 inhibitors: Repositioning an orphan chemical library by inverse virtual screening” (Eur J Med Chem, 2018).
Activity calls are given as the source filed them. The calls are words filed in the database; no cut-off is given here.

How the values were obtained:
[1] = biological target: T1, 3-phosphoinositide-dependent protein kinase 1 (Homo sapiens) (UniProt O15530); assay: Inhibition of recombinant human N-terminal His6-fused pdk1 expressed in Sf9 insect cells at 10 uM using tetra (LRRWSLG) as substrate after 60 mins in presence of [gamma-33P]-ATP by microplate scintillation counting method relative to control
T1 sequence (whole entry): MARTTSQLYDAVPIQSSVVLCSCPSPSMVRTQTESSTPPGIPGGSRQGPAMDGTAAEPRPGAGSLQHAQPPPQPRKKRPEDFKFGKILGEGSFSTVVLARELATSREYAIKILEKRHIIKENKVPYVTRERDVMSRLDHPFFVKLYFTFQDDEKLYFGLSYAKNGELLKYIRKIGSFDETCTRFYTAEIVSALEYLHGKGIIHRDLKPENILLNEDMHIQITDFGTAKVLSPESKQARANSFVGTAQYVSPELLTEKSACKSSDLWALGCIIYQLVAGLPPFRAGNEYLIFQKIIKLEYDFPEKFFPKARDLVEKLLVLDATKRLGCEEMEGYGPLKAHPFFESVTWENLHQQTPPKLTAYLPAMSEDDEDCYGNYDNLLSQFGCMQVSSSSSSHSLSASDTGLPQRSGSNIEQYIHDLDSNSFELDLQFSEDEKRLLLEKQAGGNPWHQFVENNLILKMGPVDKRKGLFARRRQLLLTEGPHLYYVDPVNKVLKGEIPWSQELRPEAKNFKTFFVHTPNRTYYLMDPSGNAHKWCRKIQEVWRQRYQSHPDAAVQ

[2] = biological target: T2, Ephrin type-A receptor 3 (Homo sapiens) (UniProt P29320); assay: Inhibition of recombinant human N-terminal GST-His6-fused ephA3 expressed in Sf9 insect cells at 10 uM using poly (Glu, Tyr) 4:1 as substrate after 60 mins in presence of [gamma-33P]-ATP by microplate scintillation counting method relative to control
T2 sequence (whole entry): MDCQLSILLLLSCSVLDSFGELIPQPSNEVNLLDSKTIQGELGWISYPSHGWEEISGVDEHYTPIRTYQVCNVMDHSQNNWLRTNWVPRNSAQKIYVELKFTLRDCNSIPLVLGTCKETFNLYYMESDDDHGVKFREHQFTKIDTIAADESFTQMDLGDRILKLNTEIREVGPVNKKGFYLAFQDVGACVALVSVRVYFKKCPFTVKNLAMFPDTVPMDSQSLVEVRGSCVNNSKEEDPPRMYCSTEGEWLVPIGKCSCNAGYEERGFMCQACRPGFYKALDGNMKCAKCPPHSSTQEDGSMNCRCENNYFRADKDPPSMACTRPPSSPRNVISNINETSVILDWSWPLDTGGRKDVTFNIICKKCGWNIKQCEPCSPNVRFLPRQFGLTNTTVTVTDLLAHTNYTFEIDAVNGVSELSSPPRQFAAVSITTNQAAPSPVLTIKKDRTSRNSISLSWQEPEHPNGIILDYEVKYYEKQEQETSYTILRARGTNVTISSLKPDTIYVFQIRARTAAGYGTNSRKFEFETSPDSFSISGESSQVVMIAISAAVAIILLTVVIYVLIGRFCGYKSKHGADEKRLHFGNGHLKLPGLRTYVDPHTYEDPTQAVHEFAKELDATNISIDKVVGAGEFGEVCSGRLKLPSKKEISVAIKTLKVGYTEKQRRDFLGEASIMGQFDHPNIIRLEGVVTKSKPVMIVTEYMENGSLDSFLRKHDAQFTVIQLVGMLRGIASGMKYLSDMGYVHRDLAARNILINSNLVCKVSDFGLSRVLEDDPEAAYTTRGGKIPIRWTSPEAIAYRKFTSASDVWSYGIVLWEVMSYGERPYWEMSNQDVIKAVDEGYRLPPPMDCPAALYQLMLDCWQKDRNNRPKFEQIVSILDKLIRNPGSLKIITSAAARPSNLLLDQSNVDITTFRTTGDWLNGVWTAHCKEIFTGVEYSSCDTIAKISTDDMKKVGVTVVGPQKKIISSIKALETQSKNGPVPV

[3] = biological target: T3, Receptor tyrosine-protein kinase erbB-4 (Homo sapiens, UniProt Q15303); assay: Inhibition of recombinant human N-terminal GST-His6-fused erbB4 expressed in Sf9 insect cells at 10 uM using poly (Glu, Tyr) 4:1 as substrate after 60 mins in presence of [gamma-33P]-ATP by microplate scintillation counting method relative to control
MCF7 [4] = assay: Cytotoxicity against human MCF7 cells after 24 hrs by MTT assay; format: functional, cell-based; conditions: MCF7, 24 h
[5] = biological target: Receptor tyrosine-protein kinase erbB-2 (Homo sapiens, UniProt P04626); assay: Inhibition of recombinant human N-terminal GST-His6-fused erbB2 expressed in Sf9 insect cells using poly (Glu, Tyr) 4:1 as substrate after 60 mins in presence of [gamma-33P]-ATP by microplate scintillation counting method
[6] = biological target: T3, Receptor tyrosine-protein kinase erbB-4; assay: Inhibition of recombinant human N-terminal GST-His6-fused erbB4 expressed in Sf9 insect cells using poly (Glu, Tyr) 4:1 as substrate after 60 mins in presence of [gamma-33P]-ATP by microplate scintillation counting method
MCF7 [7] = assay: Cell cycle arrest in human MCF7 cells assessed as accumulation at G2/M phase at 1 uM after 24 hrs by propidium iodide staining-based flow cytometric method; format: functional
MCF7 [8] = assay: Induction of cell death in human MCF7 cells assessed as appearance of sub-G0 hypodiploid nuclei at 1 uM after 24 hrs by propidium iodide staining-based flow cytometric method; format: functional

T3 sequence (Q15303 whole entry, the tested form may be a part): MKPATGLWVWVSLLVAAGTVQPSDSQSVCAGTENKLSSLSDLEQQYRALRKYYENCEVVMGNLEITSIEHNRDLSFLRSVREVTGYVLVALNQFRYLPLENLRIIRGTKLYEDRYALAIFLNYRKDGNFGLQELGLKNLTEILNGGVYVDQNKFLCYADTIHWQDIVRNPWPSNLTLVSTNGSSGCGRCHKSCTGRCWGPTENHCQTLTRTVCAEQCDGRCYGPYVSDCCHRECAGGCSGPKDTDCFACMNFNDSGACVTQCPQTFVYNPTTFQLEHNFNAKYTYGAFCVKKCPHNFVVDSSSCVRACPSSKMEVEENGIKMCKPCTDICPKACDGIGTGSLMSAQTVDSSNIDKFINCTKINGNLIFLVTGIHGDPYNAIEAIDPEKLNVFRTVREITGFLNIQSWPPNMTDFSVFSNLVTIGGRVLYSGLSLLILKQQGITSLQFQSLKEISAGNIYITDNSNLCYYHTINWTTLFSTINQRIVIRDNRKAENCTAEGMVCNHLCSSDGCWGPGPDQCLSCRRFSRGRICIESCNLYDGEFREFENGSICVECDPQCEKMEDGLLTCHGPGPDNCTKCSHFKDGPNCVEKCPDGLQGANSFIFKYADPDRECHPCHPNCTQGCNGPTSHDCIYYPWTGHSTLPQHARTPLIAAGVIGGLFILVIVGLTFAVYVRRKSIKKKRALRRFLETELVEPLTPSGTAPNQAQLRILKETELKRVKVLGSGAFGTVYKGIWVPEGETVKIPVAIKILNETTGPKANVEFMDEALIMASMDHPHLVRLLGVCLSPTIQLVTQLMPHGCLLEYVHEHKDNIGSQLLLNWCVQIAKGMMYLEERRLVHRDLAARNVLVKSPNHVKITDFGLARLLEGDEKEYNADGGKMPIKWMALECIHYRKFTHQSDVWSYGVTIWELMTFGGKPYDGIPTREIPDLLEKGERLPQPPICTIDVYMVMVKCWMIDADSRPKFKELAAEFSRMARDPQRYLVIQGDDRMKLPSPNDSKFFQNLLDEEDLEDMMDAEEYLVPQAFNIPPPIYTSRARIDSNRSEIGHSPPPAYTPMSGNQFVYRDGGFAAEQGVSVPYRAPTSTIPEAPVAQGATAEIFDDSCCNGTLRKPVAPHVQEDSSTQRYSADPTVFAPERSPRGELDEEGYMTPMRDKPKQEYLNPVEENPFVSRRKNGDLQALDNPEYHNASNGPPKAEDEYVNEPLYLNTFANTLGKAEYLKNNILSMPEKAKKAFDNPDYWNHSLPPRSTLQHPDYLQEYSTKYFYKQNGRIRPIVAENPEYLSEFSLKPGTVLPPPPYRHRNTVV
Sequence of Receptor tyrosine-protein kinase erbB-2 (P04626 whole entry, the tested form may be a part): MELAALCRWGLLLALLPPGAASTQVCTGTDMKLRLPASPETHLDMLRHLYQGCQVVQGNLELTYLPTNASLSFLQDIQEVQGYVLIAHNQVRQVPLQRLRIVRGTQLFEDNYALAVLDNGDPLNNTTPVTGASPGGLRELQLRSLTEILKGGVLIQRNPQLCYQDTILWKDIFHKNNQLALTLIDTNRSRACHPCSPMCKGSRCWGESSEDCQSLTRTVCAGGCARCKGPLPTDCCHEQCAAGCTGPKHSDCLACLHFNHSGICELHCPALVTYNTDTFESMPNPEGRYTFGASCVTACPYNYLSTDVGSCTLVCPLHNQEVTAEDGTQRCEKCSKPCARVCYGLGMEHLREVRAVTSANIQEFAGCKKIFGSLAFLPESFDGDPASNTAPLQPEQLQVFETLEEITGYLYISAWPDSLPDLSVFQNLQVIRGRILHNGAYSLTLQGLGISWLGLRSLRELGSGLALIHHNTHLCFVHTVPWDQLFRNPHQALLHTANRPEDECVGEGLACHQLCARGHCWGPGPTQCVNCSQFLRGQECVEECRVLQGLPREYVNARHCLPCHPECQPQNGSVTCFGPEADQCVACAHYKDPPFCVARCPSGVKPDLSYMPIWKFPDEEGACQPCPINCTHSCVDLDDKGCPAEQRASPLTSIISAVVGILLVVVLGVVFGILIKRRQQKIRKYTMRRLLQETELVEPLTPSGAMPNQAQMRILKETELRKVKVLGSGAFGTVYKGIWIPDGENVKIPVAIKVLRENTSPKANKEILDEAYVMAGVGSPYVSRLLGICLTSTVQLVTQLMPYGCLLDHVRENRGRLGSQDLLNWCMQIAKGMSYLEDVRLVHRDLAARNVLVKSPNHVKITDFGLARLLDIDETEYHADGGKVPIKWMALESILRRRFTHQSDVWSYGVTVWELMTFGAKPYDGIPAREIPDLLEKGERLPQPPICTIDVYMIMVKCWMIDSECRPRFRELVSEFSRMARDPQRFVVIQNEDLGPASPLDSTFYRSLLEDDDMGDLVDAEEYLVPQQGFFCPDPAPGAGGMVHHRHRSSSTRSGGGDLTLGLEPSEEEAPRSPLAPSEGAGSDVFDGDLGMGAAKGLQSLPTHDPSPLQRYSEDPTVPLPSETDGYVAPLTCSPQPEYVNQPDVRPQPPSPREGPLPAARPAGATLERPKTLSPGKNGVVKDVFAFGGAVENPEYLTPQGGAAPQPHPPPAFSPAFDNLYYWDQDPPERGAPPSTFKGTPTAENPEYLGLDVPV

| inhibition [1] [%] | inhibition [2] [%] | inhibition [3] [%] | IC50 [5] [µM] | IC50 [6] [µM] | SMILES | IC50 (MCF7 [4]) [µM] | Activity (MCF7 [7]) | Activity (MCF7 [8]) |
| --- | --- | --- | --- | --- | --- | --- | --- | --- |
|  |  | 10.3 |  |  | COc1ncc(-c2cc(C(F)(F)F)cc(S(=O)(=O)NCCc3cccc(F)c3)c2)c(OC)n1 |  |  |  |
|  | 9.1 | 18.4 |  |  | O=S(=O)(NCCc1cccc(F)c1)c1cc(-c2ccnc(F)c2)cc(C(F)(F)F)c1 |  |  |  |
| 5.2 | 7.8 | 22.2 |  |  | O=Cc1ccc(-c2cc(C(F)(F)F)cc(S(=O)(=O)NCCc3cccc(F)c3)c2)s1 |  |  |  |
| 10.3 |  | 7.5 |  |  | O=S(=O)(NCCc1cccc(F)c1)c1cc(-c2ccc(F)nc2)cc(C(F)(F)F)c1 |  |  |  |
|  |  | 14.9 |  |  | COc1cc(-c2cc(C(F)(F)F)cc(S(=O)(=O)NCCc3cccc(F)c3)c2)c(OC)nn1 |  |  |  |
| 42.8 | 33.1 | 67.7 | 25.4 | 6.43 | COCCc1ccc(OCc2ccc(-c3cc(C(F)(F)F)cc(S(=O)(=O)NCCc4cccc(F)c4)c3)cc2)cc1 | 45.1 |  |  |
| 5.7 |  | 34.3 |  |  | O=S(=O)(NCCc1cccc(F)c1)c1cc(-c2cccc(S(=O)(=O)N3CCCC3)c2)cc(C(F)(F)F)c1 |  |  |  |
|  |  | 9 |  |  | Cc1noc(C)c1-c1cc(C(F)(F)F)cc(S(=O)(=O)NCCc2cccc(F)c2)c1 |  |  |  |
| 2.4 | 11.1 | 50.5 |  |  | O=S(=O)(NCCc1cccc(F)c1)c1cc(-c2cccc3c2oc2ccccc23)cc(C(F)(F)F)c1 |  |  |  |
| 40.3 | 22 | 57 | 31.5 | 8.05 | O=S(=O)(NCCc1cccc(F)c1)c1cc(-c2ccc(-c3cccs3)s2)cc(C(F)(F)F)c1 | 9.09 | Active | inactive |

More lines, now with the values behind:

| SMILES | inhibition [1] [%] | inhibition [2] [%] | inhibition [3] [%] | IC50 [5] [µM] | IC50 [6] [µM] | IC50 (MCF7 [4]) [µM] | Activity (MCF7 [7]) | Activity (MCF7 [8]) |
| --- | --- | --- | --- | --- | --- | --- | --- | --- |
| O=S(=O)(NCCc1cccc(F)c1)c1cc(-c2ccc(COc3cccc4ccccc34)cc2)cc(C(F)(F)F)c1 | 35.6 | 30.1 | 49 |  |  |  |  |  |
| O=S(=O)(NCCc1cccc(F)c1)c1cc(-c2cc3ccccc3[nH]2)cc(C(F)(F)F)c1 | 52.2 | 22.7 | 4.6 |  |  |  |  |  |
| COc1ccc(F)cc1-c1cc(C(F)(F)F)cc(S(=O)(=O)NCCc2cccc(F)c2)c1 | 40.5 |  | 19.1 |  |  |  |  |  |
| O=S(=O)(NCCc1cccc(F)c1)c1cc(-c2cccnc2)cc(C(F)(F)F)c1 |  | 4.2 | 15.7 |  |  |  |  |  |
| COC(=O)c1ccc(-c2cc(C(F)(F)F)cc(S(=O)(=O)NCCc3cccc(F)c3)c2)cn1 |  |  | 15.8 |  |  |  |  |  |
| COc1cc(-c2cc(C(F)(F)F)cc(S(=O)(=O)NCCc3cccc(F)c3)c2)ccc1F | 27.6 |  | 12.8 |  |  |  |  |  |
| O=S(=O)(NCCc1cccc(F)c1)c1cc(-c2cccc3c2Sc2ccccc2S3)cc(C(F)(F)F)c1 | 35 | 32.8 | 57.9 | 10.4 | 6.4 | 22.8 |  |  |
| O=S(=O)(NCCc1cccc(F)c1)c1cc(-c2ccccc2COc2cccc(C(F)(F)F)c2)cc(C(F)(F)F)c1 | 52.7 | 30.4 | 63.1 | 9.71 | 4.41 | 44.2 |  |  |
| O=S(=O)(NCCc1cccc(F)c1)c1cc(-c2ccc(COc3cccc(C(F)(F)F)c3)cc2)cc(C(F)(F)F)c1 | 50.8 | 28.5 | 67.9 | 18 | 5.06 | 28.2 |  |  |
